Results reported in patent publication US5576439A, “Dihydropyridinecarboxylic acid anhydrides” (Ciba-Geigy Corporation, priority 1994, dated 1996).

Legend:
ETA receptor [1] = biological target: T1, ETA receptor (Rattus norvegicus, UniProt P26684); test: ETA receptor inhibitory activity by release of [^3 H]-inositol from labeled A7r5 cells; type: cell-based
T1 construct: labeled A7r5 cells; endogenous in cells; host or cells: A7r5 cells
T1 sequence (P26684 21-426): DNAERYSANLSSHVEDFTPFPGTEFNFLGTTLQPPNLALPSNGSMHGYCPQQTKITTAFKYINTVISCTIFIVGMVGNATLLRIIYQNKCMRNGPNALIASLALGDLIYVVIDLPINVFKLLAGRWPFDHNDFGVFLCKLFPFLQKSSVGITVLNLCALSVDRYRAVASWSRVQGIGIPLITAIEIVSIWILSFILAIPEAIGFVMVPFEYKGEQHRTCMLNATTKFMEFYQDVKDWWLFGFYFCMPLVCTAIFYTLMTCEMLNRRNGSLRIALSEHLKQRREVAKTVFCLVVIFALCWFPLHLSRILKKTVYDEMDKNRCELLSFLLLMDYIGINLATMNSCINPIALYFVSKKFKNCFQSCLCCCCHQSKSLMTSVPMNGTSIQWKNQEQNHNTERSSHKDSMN
Excerpt: For instance the ETA receptor inhibitory activity can be determined by measuring the release of [^3 H]-inositol from [^3 H]-inositol labeled A7r5 cells, as previously described by Cioffi et at, J. Cardiovasc. Pharmacol. 22 (Suppl. 8), S-168 (1993).

ETA receptor [2] = biological target: T2, ETA receptor (Sus scrofa, UniProt Q29010); test: Inhibition of [^125 I] ET-1 binding to porcine thoracic aorta membranes
T2 construct: porcine thoracic aorta membranes (ETA receptor); from tissue; host or cells: porcine thoracic aorta membranes
T2 sequence (Q29010 21-427): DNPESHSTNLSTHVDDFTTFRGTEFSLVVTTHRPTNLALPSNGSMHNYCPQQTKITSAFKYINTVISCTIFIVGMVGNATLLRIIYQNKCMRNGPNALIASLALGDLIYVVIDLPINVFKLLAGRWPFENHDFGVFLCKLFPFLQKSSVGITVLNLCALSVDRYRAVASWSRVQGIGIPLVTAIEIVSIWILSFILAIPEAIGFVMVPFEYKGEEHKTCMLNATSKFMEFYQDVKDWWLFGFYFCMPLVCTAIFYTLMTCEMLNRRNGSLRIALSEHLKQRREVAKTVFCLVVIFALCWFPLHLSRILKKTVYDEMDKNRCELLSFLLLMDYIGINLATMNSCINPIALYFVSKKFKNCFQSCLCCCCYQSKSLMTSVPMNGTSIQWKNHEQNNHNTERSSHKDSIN
Protocol: (§1) Inhibition of the binding of [^125 I] ET-1 to porcine thoracic aorta membranes (ETA receptor) is determined according to Cioffi et al, J. Pharmacol. Exp. Ther. 262, 611 (1992); similarly inhibition of binding of [^125 I] ET-1 to rat cerebellum membranes (ETB receptor).

ETB receptor = biological target: T3, ETB receptor (Rattus norvegicus, UniProt P21451); test: Inhibition of [^125 I] ET-1 binding to rat cerebellum membranes
T3 construct: rat cerebellum membranes (ETB receptor); from tissue; host or cells: rat cerebellum membranes
T3 sequence (P21451 27-442): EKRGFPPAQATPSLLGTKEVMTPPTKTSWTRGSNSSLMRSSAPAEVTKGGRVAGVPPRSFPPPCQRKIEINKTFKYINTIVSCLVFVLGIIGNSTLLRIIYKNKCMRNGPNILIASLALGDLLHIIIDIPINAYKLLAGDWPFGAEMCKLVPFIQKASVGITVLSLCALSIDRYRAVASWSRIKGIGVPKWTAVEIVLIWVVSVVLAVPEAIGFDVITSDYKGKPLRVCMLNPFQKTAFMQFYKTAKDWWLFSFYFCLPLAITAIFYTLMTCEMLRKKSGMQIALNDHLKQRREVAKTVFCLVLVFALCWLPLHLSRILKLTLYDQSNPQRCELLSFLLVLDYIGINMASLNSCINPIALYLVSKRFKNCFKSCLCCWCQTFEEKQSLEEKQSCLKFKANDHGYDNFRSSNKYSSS
Protocol: as §1

[3] = tested on: ET-1 induced contractile response in isolated rabbit aorta; test: Inhibition of ET-1 induced contractile response in isolated rabbit aorta; conditions: 10 μM, 30 minute pretreatment
Protocol: (§2) The cardiovascular effects of ET-1 inhibitory activity can be determined as follows:
(§3) A 30 minute pretreatment with test compound (0.1-10 μM) is utilized to determine inhibition of the ET-1 induced contractile response in isolated rabbit aorta. The maximal response to ET-1 is measured at 0.1, 1 and 10 μM, respectively. Similar pretreatment with test compound (1 μM) is utilized to determine the effects of phenylephrine or KCl induced contraction, an indication that the specificity of hemodynamic affects is caused by intereaction with the endothelin receptor. A 5 minute pretreatment with test compound (10 mg/kg, i.v.) is also used to assess the effects on pressor response and attenuation of the depressor response to ET-1 (0.25 nmol/kg iv.) in the conscious rat.

[4] = tested on: increase in blood pressure induced by ET-1; test: Effect on pressor response to ET-1 in the conscious rat; type: in vivo; conditions: 10 mg/Kg i.v., 5 minute pretreatment, ET-1 0.25 nmol/kg i.v.
Protocol: as §2, §3

## COC(=O)C1=C(C)NC(C)=C(C(=O)OC(=O)C2=C(C)NC(C)=C(C(=O)OC)[C@@H]2c2cccc([N+](=O)[O-])c2)[C@@H]1c1cccc([N+](=O)[O-])c1 [Example 1, meso-1,4-dihydro-5-methoxycarbonyl-2,6-dimethyl-4-(3-nitrophenyl)-3-pyridine-carboxylic acid anhydride]
ETA receptor [1]
  IC50: ~0.14 µM
ETA receptor [2]
  IC50: ~0.016 µM
ETB receptor
  IC50: ~0.3 µM
[3]
  inhibition of ET-1 induced contractile response: 77%
[4]
  antagonism of increase in blood pressure induced by ET-1: completely antagonizes
